Legend:
Settings in all cases: 72 h
[1] = tested on: HL-60; experiment: cell viability (% survival relative to DMSO control); higher = less cytotoxic
Method in brief: (§1)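 HL-60 cells in RPMI 1640 with 10% FBS were rescreened against the full library on 384-well plates at five tenfold concentrations, 1–10,000 nM, in duplicate. Each screen was run with DMSO or 100 nM of one of three metabolic inhibitors, for 72 h at 37 °C, 5% CO2. Viability was read by CellTiter-Glo and normalised to DMSO and 10 μM proteasome-inhibitor wells. Where given, area under the curve came from four-parameter log-logistic fits (drc, PharmacoGx).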

[2] = tested on: myeloid leukemia patient primary cells Pat.12; experiment: cell viability (% survival relative to DMSO control); higher = less cytotoxic
Method in brief: (§2)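 Seventy compounds were pre-printed on 384-well plates at five tenfold concentrations between 1 and 10,000 nM, in duplicate. Thawed mononuclear cells purified by Ficoll from AML or CML patients were added at 10,000 cells/well in RPMI 1640 with 10% FBS for 72 h. Viability by CellTiter-Glo was normalised to DMSO and 10 μM proteasome-inhibitor wells. Where stated, area under the curve was taken from log-logistic fits made with the drc and PharmacoGx R packages, each fit having four parameters.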

[3] = tested on: myeloid leukemia patient primary cells Pat.13; experiment: as above
Method in brief: as §2

[4] = tested on: myeloid leukemia patient primary cells Pat.14; experiment: as above
Method in brief: as §2

[5] = tested on: myeloid leukemia patient primary cells Pat.15; experiment: as above
Method in brief: as §2

[6] = tested on: myeloid leukemia patient primary cells Pat.2; experiment: as above
Method in brief: as §2

[7] = tested on: myeloid leukemia patient primary cells Pat.8; experiment: as above
Method in brief: as §2

[8] = tested on: HL-60; experiment: area under dose-response curve (viability, 1 nM-10 uM) (fraction (0-1)); higher = more sensitive
Method in brief: as §1

[9] = tested on: myeloid leukemia patient primary cells Pat.10; experiment: area under dose-response curve (viability, 1 nM-10 uM) (fraction (0-1)); higher = more sensitive
Description: (§3)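 AUC (0–1, higher = more sensitive) of the 5-point dose–response (1 nM–10 µM, 72 h, CellTiter-Glo) in primary AML/CML patient mononuclear cells. 0.030103 is the floor for inactive compounds.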

[10] = tested on: myeloid leukemia patient primary cells Pat.11; experiment: as above
Description: as §3

[11] = tested on: myeloid leukemia patient primary cells Pat.12; experiment: as above
Description: as §3

[12] = tested on: myeloid leukemia patient primary cells Pat.13; experiment: as above
Description: as §3

[13] = tested on: myeloid leukemia patient primary cells Pat.14; experiment: as above
Description: as §3

[14] = tested on: myeloid leukemia patient primary cells Pat.15; experiment: as above
Description: as §3

[15] = tested on: myeloid leukemia patient primary cells Pat.1; experiment: as above
Description: as §3

[16] = tested on: myeloid leukemia patient primary cells Pat.3; experiment: as above
Description: as §3

[17] = tested on: myeloid leukemia patient primary cells Pat.4; experiment: as above
Description: as §3

[18] = tested on: myeloid leukemia patient primary cells Pat.5; experiment: as above
Description: as §3

[19] = tested on: myeloid leukemia patient primary cells Pat.6; experiment: as above
Description: as §3

[20] = tested on: myeloid leukemia patient primary cells Pat.7; experiment: as above
Description: as §3

[21] = tested on: myeloid leukemia patient primary cells Pat.8; experiment: as above
Description: as §3

[22] = tested on: myeloid leukemia patient primary cells Pat.9; experiment: as above
Description: as §3

[23] = tested on: myeloid leukemia patient primary cells Pat.2; experiment: as above
Description: as §3

O=C(O)CC[N+](=O)[O-] [3-nitropropionic acid]
cell viability [%], [1]
Settings | 0.001 µM | 0.01 µM | 0.1 µM | 1 µM | 10 µM
co-treatment: AZD3965 100 nM | 102 | 95.1 | 101 | 101.5 | 97.6
co-treatment: DMSO vehicle | 99.6 | 98.8 | 107 | 111 | 101
co-treatment: GSK2194069 100 nM | 98.1 | 76.9 | 116 | 115 | 96.7
co-treatment: pictilisib 100 nM | 84.3 | 82.1 | 103 | 128 | 106

Settings | area under dose-response curve, co-treatment: AZD3965 100 nM | area under dose-response curve, co-treatment: DMSO vehicle | area under dose-response curve, co-treatment: GSK2194069 100 nM | area under dose-response curve, co-treatment: pictilisib 100 nM | cell viability, 1 nM [%] | cell viability, 10 nM [%] | cell viability, 100 nM [%] | cell viability, 1000 nM [%] | cell viability, 10000 nM [%]
[2] | – | – | – | – | 97.9 | 84 | > 100 | 91.5 | 48.2
[3] | – | – | – | – | 87.3 | 92.4 | 95.5 | 88.3 | 70.8
[4] | – | – | – | – | 98.6 | 91.2 | > 100 | 84.7 | 30.7
[5] | – | – | – | – | 92.7 | 79.1 | 98.7 | 94.9 | 2.04
[6] | – | – | – | – | 91.3 | 98.1 | > 100 | 92.7 | 83.7
[7] | – | – | – | – | 81.1 | 96.9 | 95.6 | 96.3 | 82.7
[8] | < 0.0301 | < 0.0301 | < 0.0301 | < 0.0301 | – | – | – | – | –

Settings | area under dose-response curve
[9] | 0.0892
[10] | < 0.0301
[11] | 0.0457
[12] | 0.0548
[13] | 0.112
[14] | 0.123
[15] | 0.0529
[16] | 0.133
[17] | 0.113
[18] | 0.168
[19] | 0.0437
[20] | 0.058
[21] | < 0.0301
[22] | 0.148

CN(CCOc1ccc(Cc2sc(O)nc2O)cc1)c1ccccn1 [Rosiglitazone]
cell viability [%], [1]
Settings | 0.001 µM | 0.01 µM | 0.1 µM | 1 µM | 10 µM
co-treatment: AZD3965 100 nM | 104.4 | 105 | 100 | 105 | 102
co-treatment: DMSO vehicle | 102.4 | 102 | 102 | 102.5 | 99.9
co-treatment: GSK2194069 100 nM | 97.7 | 105 | 98.5 | 105 | 92.5
co-treatment: pictilisib 100 nM | 98.9 | 102 | 96.3 | 98.3 | 89.5

Settings | area under dose-response curve, co-treatment: AZD3965 100 nM | area under dose-response curve, co-treatment: DMSO vehicle | area under dose-response curve, co-treatment: GSK2194069 100 nM | area under dose-response curve, co-treatment: pictilisib 100 nM | cell viability, 1 nM [%] | cell viability, 10 nM [%] | cell viability, 100 nM [%] | cell viability, 1000 nM [%] | cell viability, 10000 nM [%]
[2] | – | – | – | – | > 100 | 97.4 | 95.7 | 96.5 | 88.9
[3] | – | – | – | – | 80.8 | 69.2 | 99.9 | 91.9 | 78.3
[4] | – | – | – | – | 53.7 | 59.7 | > 100 | 91.1 | 50
[5] | – | – | – | – | 93.1 | 95 | 91.5 | 77.7 | 70
[6] | – | – | – | – | 87.1 | 78.9 | 97.8 | 98.3 | 83.4
[7] | – | – | – | – | 92.6 | 87 | 80.3 | 91.8 | 69.7
[8] | < 0.0301 | < 0.0301 | < 0.0301 | < 0.0301 | – | – | – | – | –

Settings | area under dose-response curve
[9] | 0.0632
[10] | < 0.0301
[11] | < 0.0301
[12] | < 0.0301
[13] | < 0.0301
[15] | < 0.0301
[16] | 0.0764
[17] | < 0.0301
[18] | 0.0995
[19] | < 0.0301
[20] | < 0.0301
[21] | < 0.0301
[22] | 0.139
[23] | < 0.0301

C[C@]12C=CC(=O)C=C1CC[C@@H]1[C@@H]2[C@@H](O)C[C@@]2(C)[C@H]1CC[C@]2(O)C(=O)CO [Prednisolone]
cell viability [%], [1]
Settings | 0.001 µM | 0.01 µM | 0.1 µM | 1 µM | 10 µM
co-treatment: AZD3965 100 nM | 82.4 | 96.7 | 103 | 103 | 96.2
co-treatment: DMSO vehicle | 95.9 | 104 | 100 | 103 | 101.5
co-treatment: GSK2194069 100 nM | 94.8 | 101 | 98.4 | 101 | 100
co-treatment: pictilisib 100 nM | 90 | 92.8 | 99.1 | 105.5 | 95.8

Settings | area under dose-response curve, co-treatment: AZD3965 100 nM | area under dose-response curve, co-treatment: DMSO vehicle | area under dose-response curve, co-treatment: GSK2194069 100 nM | area under dose-response curve, co-treatment: pictilisib 100 nM | cell viability, 1 nM [%] | cell viability, 10 nM [%] | cell viability, 100 nM [%] | cell viability, 1000 nM [%] | cell viability, 10000 nM [%]
[2] | – | – | – | – | 89 | 88.8 | 95.7 | 83.9 | 79
[3] | – | – | – | – | 93.4 | 82 | 92.6 | > 100 | > 100
[4] | – | – | – | – | 85.8 | 46.4 | 80.9 | 94 | 68.3
[5] | – | – | – | – | 81.1 | 88.6 | 86.1 | 75.4 | 61.2
[6] | – | – | – | – | 95.6 | 86.1 | 87.2 | 77.3 | 76.4
[7] | – | – | – | – | 86.3 | 70.1 | 87.3 | 59.3 | 47.6
[8] | < 0.0301 | < 0.0301 | < 0.0301 | < 0.0301 | – | – | – | – | –

Settings | area under dose-response curve
[9] | 0.678
[11] | < 0.0301
[12] | < 0.0301
[13] | < 0.0301
[15] | < 0.0301
[16] | 0.227
[18] | < 0.0301
[20] | < 0.0301
[21] | 0.0885
[22] | < 0.0301

— the supplement of paper PMC8671470
